Measured values published in PMC12616683, “In Vivo Atlas of Neuroprotective Cyclic Dipeptides Derived from Food Gelatin Using Peptidomics and Feature-Based Molecular Networking” (Journal of Agricultural and Food Chemistry, 2025).
“And” between values parts separate entries of the source, which are not always exact repeats. Equal values may be shown once. Read-outs that look alike come from different tables or passages of the source. Peptide text beside a SMILES is read from it.

How the values were obtained:
HT-22 cells = settings: 20 mM Glu, 24 h
Protocol: HT-22 cells were cultured in DMEM medium with 10% fetal bovine serum (Gibco), 1% penicillin, and streptomycin (Gibco) at 37 °C. HT-22 cells were seeded at a density of 1 × 10^4 cells per well in 96-well plates and cultured in DMEM medium containing 10% fetal bovine serum and 1% penicillin–streptomycin at 37 °C with 5% CO2.

[1] = parameters: method as in number not printed ("It was reported"); settings: linear dipeptide; ref number not printed ("It was reported"); cited from earlier work
[2] = parameters: method as in number not printed ("A study in humans"); settings: humans; ref number not printed ("A study in humans"); cited from earlier work
[3] = parameters: method as in number not printed ("the literature reports"); settings: mice; ref number not printed ("the literature reports"); cited from earlier work
[4] = Serum pharmacokinetics of CDPs after oral administration of DHG (targeted LC-MS, noncompartmental analysis); settings: for AUC0–24h / C max / T max: serum, mice; for time remained detectable in serum: serum/blood after oral DHG, sampled to 24 h
Glu-induced HT-22 cells = test: Neuroprotection in Glu-injured HT-22 cells (CCK-8 cell viability); settings: for Cell viability(%) in Glu-induced HT-22 cells: Glu-only model (0 μM) 40.759±1.939; for cell viability in Glu-injured HT-22 cells: 50 μM (stated for cyclo(Hyp-Ala)), 4 h pretreatment, then 20 mM Glu 24 h, model group 40.759 ± 1.939%
H2O2-induced HT-22 cells = test: Neuroprotection in H2O2-injured HT-22 cells (CCK-8 cell viability); settings: for Cell viability(%) in H2O2-induced HT-22 cells: compound 50 μM, H2O2-only model (0 μM) 48.645±0.347
[5] = Concentrations of CDPs in stomach, small intestine and cecum contents after oral DHG (targeted spatiotemporal metabolomics); type: in vivo, C57 mice
Protocol: The supernatant was dried using N2.
For gastrointestinal content analysis, freeze-dried powders (1 mg each) of stomach, small intestine, and cecum contents collected over the 0–24 h postadministration period were accurately weighed. The samples were extracted using the same pretreatment procedure as applied for DHG, namely, ultrasonication with 75% methanol for 30 min at room temperature, followed by centrifugation (13,500 rpm, 10 min). The supernatants were collected, dried under nitrogen, and reconstituted in 75% methanol for LC–MS analysis. Quantitation was performed against the 12-point calibration curves established above, ensuring consistency with the DHG quantitation workflow. Samples from different time points were analyzed individually to characterize the temporal distribution of CDPs within each gastrointestinal compartment.

[6] = FBMN analysis of short peptides in small intestine contents and serum after oral DHG; settings: for time detected in serum (FBMN): time points 0.5-4 h after oral DHG; for Peptide signal (feature intensity) in the small intestine, 30 min / Peptide signal (feature intensity) in the small intestine, 60 min / Peptide signal (feature intensity) in the small intestine, 120 min / Peptide signal (feature intensity) in the small intestine, 240 min: small intestine contents, C57 mice, FBMN feature intensity, peptides smaller than 690 Da; for Peptide signal (feature intensity) in the small intestine, 30 min: 30 min after oral DHG; for Peptide signal (feature intensity) in the small intestine, 60 min: 60 min after oral DHG; for Peptide signal (feature intensity) in the small intestine, 120 min: 120 min after oral DHG; for Peptide signal (feature intensity) in the small intestine, 240 min: 240 min after oral DHG
[7] = mouse, in vivo, po
[8] = mouse, in vivo, po, 1000 mg/kg

| SMILES | AUC0–24h ([4]; oral DHG 1000 mg/kg) | C max ([4]; oral DHG 1000 mg/kg) | T max ([4]; oral DHG 1000 mg/kg) | Cell viability(%) in Glu-induced HT-22 cells (Glu-induced HT-22 cells; compound 25 μM) | Cell viability(%) in Glu-induced HT-22 cells (Glu-induced HT-22 cells; compound 50 μM) | Cell viability(%) in H2O2-induced HT-22 cells (H2O2-induced HT-22 cells) | further results |
| --- | --- | --- | --- | --- | --- | --- | --- |
| N[C@@H](CCC(=O)O)C(=O)O [Glu, Glutamate] | – | – | – | – | – | – | HT22 cell viability after Glu exposure (HT-22 cells): 40–60% |
| NCC(=O)N1CCC[C@H]1C(=O)O [Gly-Pro] (H-Gly-Pro-OH) | – | – | – | – | – | – | time to decrease to a negligible level after oral administration [1]: ≤ 1 h; T max, C max, and AUC0–4h compared with cyclo(Gly-Pro) [2]: lower |
| O=C(O)[C@@H]1C[C@@H](O)CN1C(=O)[C@@H]1CCCN1 [Pro-Hyp] (HELM PEPTIDE1{P.[Hyp]}$$$$V2.0) | – | – | – | – | – | – | time to drop to basal levels [3]: ≤ 3 h |
| O=C1NCC(=O)N2CCC[C@@H]12 [cyclo(Gly-Pro)] | 15547.0170 ng·h/mL | 4259.0300 ng/mL | 60 min | 54.865±0.079% | 58.506±3.833% | 53.985±7.459% | time remained detectable in serum [4]: 12 h |
| CC1NC(=O)C2CC(O)CN2C1=O (stereo not shown) [cyclo(Hyp-Ala)] | 2561.8131 ng·h/mL | 400.1572 ng/mL | 60 min | 54.245±1.226% | – | – | cell viability in Glu-injured HT-22 cells (Glu-induced HT-22 cells): 70.614 ± 4.85 % cell viability; cell viability in H2O2-injured HT-22 cells (H2O2-induced HT-22 cells; 50 μM, 4 h pretreatment, then 400 μM H2O2 24 h): 68.515 ± 2.290% |
| O=C1NCC(=O)N2CC(O)CC12 (stereo not shown) [cyclo(Hyp-Gly), cyclo(Gly-Hyp)] | 7371.695 ng·h/mL and 7371.6951 ng·h/mL | 683.7471 ng/mL | 120 min | 61.970±4.223% | 53.703±1.518% | 62.961±1.166% | C max ([4]; oral DHG): 684 ng/mL; cell viability in Glu-injured HT-22 cells (Glu-induced HT-22 cells): 63.703 ± 1.518 % cell viability; concentration in the cecum ([5]; cecum contents at 8 h): 358.966 ng/g; cecum concentration at 8 h compared with peak levels in stomach and small intestine [5]: surpassed the peak levels observed in the stomach and small intestine; concentration in the small intestine ([5]; small intestine contents at 1 h): 354.578 ng/g; concentration in the stomach ([5]; stomach contents at 0.5 h): 265.229 ng/g |
| CC(C)CC1NC(=O)C2CC(O)CN2C1=O (stereo not shown) [cyclo(Hyp-Leu)] | 301.1580 ng·h/mL | 110.4803 ng/mL | 30 min | 53.193±5.729% | 53.590±3.417% | 60.867±9.188% | time detected in serum (FBMN) [6]: 0.5 to 4 h |
| O=C1N[C@@H](Cc2ccccc2)C(=O)N2C[C@@H](O)C[C@@H]12 [cyclo(Phe-Hyp)] | 263.2271 ng·h/mL | 51.2931 ng/mL | 60 min | 56.084±2.124% | – | 63.241±3.395% | time detected in serum (FBMN) [6]: 0.5 to 4 h; cell viability in Glu-injured HT-22 cells (Glu-induced HT-22 cells): 60.206 ± 4.409 % cell viability; cecum concentration at 8 h compared with peak levels in stomach and small intestine [5]: surpassed the peak levels observed in the stomach and small intestine |
| CC(C)CC1NC(=O)C(Cc2ccccc2)NC1=O (stereo not shown) [cyclo(Phe-Leu)] | – | – | – | – | – | – | Peptide signal (feature intensity) in the small intestine, 30 min [6]: 1.01E+05; Peptide signal (feature intensity) in the small intestine, 60 min [6]: 0.00E+00; Peptide signal (feature intensity) in the small intestine, 120 min [6]: 8.22E+05; Peptide signal (feature intensity) in the small intestine, 240 min [6]: 4.33E+05 |
| O=C1N[C@@H](Cc2cnc[nH]2)C(=O)N2CCC[C@@H]12 [cyclo(Pro-His), cyclo(His-Pro)] | 13.9981 ng·h/mL | 1.9830 ng/mL | 30 min | 52.701±4.050% | 55.361±5.121% | 55.307±7689% | – |
| O=C1[C@@H]2C[C@@H](O)CN2C(=O)[C@@H]2CCCN12 [cyclo(Pro-Hyp)] | 2126.6252 ng·h/mL | 408.1371 ng/mL | 60 min | 53.105±7.712% | – | 67.606±2.468% | time remained detectable in serum [4]: 24 h; cell viability in Glu-injured HT-22 cells (Glu-induced HT-22 cells): 60.071 ± 3.101 % cell viability; cecum concentration at 8 h compared with peak levels in stomach and small intestine [5]: surpassed the peak levels observed in the stomach and small intestine |
| CC[C@H](C)[C@@H]1NC(=O)[C@@H]2CCCN2C1=O [cyclo(Pro-Ile)] | 71.9933 ng·h/mL | 24.5331 ng/mL | 30 min | 58.030±5.577% | – | 61.087±0.749% | cell viability in Glu-injured HT-22 cells (Glu-induced HT-22 cells): 63.104 ± 2.519 % cell viability |
| CC(C)CC1NC(=O)C2CCCN2C1=O (stereo not shown) [cyclo(Pro-Leu)] | 176.6962 ng·h/mL | 81.2502 ng/mL | 30 min | 52.208±0.555% | 55.781±2.676% | 57.413±6.700% | time detected in serum (FBMN) [6]: 0.5 to 4 h |
| O=C1N[C@@H](Cc2ccccc2)C(=O)N2CCC[C@@H]12 [cyclo(Pro-Phe)] | – | – | – | – | – | – | Peptide signal (feature intensity) in the small intestine, 30 min [7]: 2.06E+05; Peptide signal (feature intensity) in the small intestine, 60 min [7]: 0.00E+00; Peptide signal (feature intensity) in the small intestine, 120 min [7]: 2.49E+05; Peptide signal (feature intensity) in the small intestine, 240 min [7]: 2.18E+05; AUC0–24h [8]: 19.8164 ng·h/mL; C max [8]: 11.0670 ng/mL; T max [8]: 30 min |
| O=C1[C@@H]2CCCN2C(=O)[C@@H]2CCCN12 [cyclo(Pro-Pro)] | 487.9963 ng·h/mL | 197.3334 ng/mL | 30 min | 57.390±2.465% | 58.451±5.789% | 60.084±2.807% | time of decline / return to baseline in serum ([4]; serum after oral DHG): up to 8 h |
| CC(C)[C@@H]1NC(=O)[C@@H]2CCCN2C1=O [cyclo(Pro-Val)] | 201.4294 ng·h/mL | 78.4401 ng/mL | 30 min | 57.390±2.314% | 58.518±3.306% | 60.019±9.124% | time detected in serum (FBMN) [6]: 0.5 to 4 h |
| O=C1CNC(=O)C(Cc2ccccc2)N1 [cyclo(glycinyl-L-phenylalanine)] | – | – | – | – | – | – | Peptide signal (feature intensity) in the small intestine, 30 min [6]: 1.21E+06; Peptide signal (feature intensity) in the small intestine, 60 min [6]: 0.00E+00; Peptide signal (feature intensity) in the small intestine, 120 min [6]: 9.00E+05; Peptide signal (feature intensity) in the small intestine, 240 min [6]: 4.18E+05 |
